Experimental data: patent US20260224548A1 (priority 2022, published 2026)
Where two headings read alike, the source gives them in different places.

What was measured:
HsEH = biological target: T1, HsEH (Homo sapiens, UniProt P34913); test: biochemical; type: biochemical
T1 sequence (P34913 1-555): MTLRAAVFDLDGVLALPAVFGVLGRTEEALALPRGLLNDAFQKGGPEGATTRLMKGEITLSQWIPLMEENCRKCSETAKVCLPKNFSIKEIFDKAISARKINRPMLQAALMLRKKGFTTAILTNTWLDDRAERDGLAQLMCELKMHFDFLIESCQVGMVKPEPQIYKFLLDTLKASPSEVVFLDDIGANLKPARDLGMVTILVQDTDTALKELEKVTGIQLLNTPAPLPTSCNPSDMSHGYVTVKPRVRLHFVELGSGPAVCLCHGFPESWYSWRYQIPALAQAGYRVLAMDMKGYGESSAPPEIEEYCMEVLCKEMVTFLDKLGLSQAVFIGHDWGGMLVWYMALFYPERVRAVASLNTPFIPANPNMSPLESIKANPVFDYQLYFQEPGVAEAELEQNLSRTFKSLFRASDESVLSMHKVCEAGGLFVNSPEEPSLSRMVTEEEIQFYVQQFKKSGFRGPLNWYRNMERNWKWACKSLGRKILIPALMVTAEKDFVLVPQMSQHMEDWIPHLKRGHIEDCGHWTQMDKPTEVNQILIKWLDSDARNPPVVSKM
From the text: (§1) Detection principle: a specific substrate, (3-phenyl-oxy)-acetic acid cyano-(6-methoxy-naphthalen-2-yl)methyl ester, namely PHOME, is non-fluorescent but can be hydrolyzed under the action of sEH enzyme to generate a product 6-methoxy-2-naphthaldehyde. The 6-methoxy-2-naphthaldehyde can emit fluorescence with a wavelength of 465 nm under 330 nm light wave excitation, and an intensity of the detected fluorescence signal is inversely proportional to an inhibitory effect on the sEH enzyme. Based on the above principle, the inhibition rates of samples with different concentrations were calculated compared with the positive control group. The IC50 value of the compound was calculated based on the inhibition rate and concentration using SPSS 20 software.
(§2) 25 mM Tris-HCl buffer (pH=7.4, containing 0.1 mg/mL BSA): […] BAS was added to 12.5 mL of 1 M Tris-HCl buffer, followed by diluting with purified water, and a resulting mixture was adjusted to a pH value of 7.4 with hydrochloric acid, and diluted to 500 mL.
(§3) PHOME solution: 0.79 mg PHOME was dissolved in 106 μL DMSO to obtain a 20 mM PHOME solution, which was diluted to ⅓ mM with Tris-HCl buffer before use.
(§4) sEH solution: sEH (5 mg/mL) stock solution was stored in a refrigerator at −80° C. and diluted to 4 μg/mL with 25 mM Tris-HCl buffer before use.
(§5) A sample powder to be tested was dissolved in DMSO to a 20 mM solution, stored in a refrigerator at −20° C. for later use, and diluted with Tris-HCl buffer to corresponding concentrations when used.
(§6) Experimental design: solvent group, 100% activity group (A), inhibitor group (B), positive control group (C), as shown in Table 1.
(§7) Three replicate wells were set for each sample, and the average value of the three replicate wells was the fluorescence value (F) of the compound to be tested. […] The IC50 value of the compound was calculated based on the inhibition rate and concentration using SPSS 20 software.

MsEH = biological target: T2, MsEH (Mus musculus, UniProt P34914); test: sEH inhibitory activity, PHOME fluorescence assay (MsEH); type: biochemical
T2 sequence (P34914 1-554): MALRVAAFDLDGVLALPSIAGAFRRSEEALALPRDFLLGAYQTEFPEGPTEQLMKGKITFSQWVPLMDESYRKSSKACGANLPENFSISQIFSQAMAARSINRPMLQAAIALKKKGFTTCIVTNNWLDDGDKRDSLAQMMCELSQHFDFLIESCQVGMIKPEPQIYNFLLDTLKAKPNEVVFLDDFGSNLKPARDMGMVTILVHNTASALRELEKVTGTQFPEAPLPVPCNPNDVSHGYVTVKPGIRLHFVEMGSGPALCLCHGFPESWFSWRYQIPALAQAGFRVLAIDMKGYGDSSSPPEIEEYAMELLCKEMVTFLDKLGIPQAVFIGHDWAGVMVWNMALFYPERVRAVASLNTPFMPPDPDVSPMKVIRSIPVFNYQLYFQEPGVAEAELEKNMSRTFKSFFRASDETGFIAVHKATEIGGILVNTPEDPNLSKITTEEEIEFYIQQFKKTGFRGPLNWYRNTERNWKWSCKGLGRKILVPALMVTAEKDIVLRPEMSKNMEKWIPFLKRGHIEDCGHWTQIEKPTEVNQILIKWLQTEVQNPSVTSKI
From the text: as §1, §2, §3, §4, §5, §6, §7

[1] = PHOME substrate 50 μM, sEH 400 ng/ml, 37° C., 10 min, fluorescence 330/465 nm, read-out: HsEH IC50 (nM) Inhibitory activity against HsEH
[2] = PHOME substrate 50 μM, sEH 400 ng/ml, 37° C., 10 min, fluorescence 330/465 nm, read-out: MsEH IC50 (nM) Inhibitory activity against MsEH

Compound	IC50 (HsEH; [1]) [nM]	IC50 (MsEH) [nM]	IC50 (HsEH) [nM]	IC50 (MsEH; [2]) [nM]
CCN(CC)CCN1CCC(CC(=O)N2CCCN(Cc3ccc(NC(=O)NC45CC6CC(C)(CC(C)(C6)C4)C5)c(F)c3)CC2)CC1 [GL-24, 1-(4-((4-(2-(1-(2-(diethylamino)ethyl)piperidin-4-yl)acetyl)-1,4-diaza-1-yl)methyl)-2-fluorophenyl)-3-((1r,3R,5S,7r)-3,5-dimethyladamantan-1-yl) urea]	2.1	1.37		
CC(=O)N1CCCN(C(=O)[C@H]2CCCN(C(=O)c3ccc(NC(=O)NC45CC6CC(C)(CC(C)(C6)C4)C5)c(F)c3)C2)CC1 [GL-101, 1-(4-((S)-3-(4-acetyl-1,4-diaza-1-carbonyl)piperidine-1-carbonyl)-2-fluorophenyl)-3-((1r,3R,5S,7S)-3,5-dimethyladamantan-1-yl) urea]		0.26	0.6	
CCC(=O)N1CCCN(C(=O)[C@H]2CCCN(C(=O)c3ccc(NC(=O)NC45CC6CC(C)(CC(C)(C6)C4)C5)c(F)c3)C2)CC1 [GL-102, 1-((1r,3R,5S,7S)-3,5-dimethyladamantan-1-yl)-3-(2-fluoro-4-((S)-3-(4-propionyl-1,4-diaza-1-carbonyl)piperidine-1-carbonyl)phenyl) urea]	0.56	0.58		
CCC(C)C(=O)N1CCCN(C(=O)[C@H]2CCCN(C(=O)c3ccc(NC(=O)NC45CC6CC(C)(CC(C)(C6)C4)C5)c(F)c3)C2)CC1 (stereo partly drawn) [GL-104, 1-((1r,3R,5S,7S)-3,5-dimethyladamantan-1-yl)-3-(2-fluoro-4-((3S)-3-(4-(2-methylbutanoyl)-1,4-diaza-1-carbonyl)piperidine-1-carbonyl)phenyl) urea]	1.4	0.9		
CC12CC3CC(C)(C1)CC(NC(=O)Nc1ccc(C(=O)N[C@H]4CC[C@H](C(=O)NCCO)CC4)cc1F)(C3)C2 [ZT-110, 4-(3-((1r,3R,5S,7r)-3,5-dimethyladamantan-1-yl)ureido)-3-fluoro-N-((1r,4R)-4-((2-hydroxyethyl)carbamoyl)cyclohexyl)benzamide]		0.18	0.8	
CC(O)CNC(=O)[C@H]1CC[C@H](NC(=O)c2ccc(NC(=O)NC34CC5CC(C)(CC(C)(C5)C3)C4)c(F)c2)CC1 (stereo partly drawn) [ZT-111, 4-(3-((1r,3R,5S,7r)-3,5-dimethyladamantan-1-yl)ureido)-3-fluoro-N-((1r,4R)-4-((2-hydroxypropyl)carbamoyl)cyclohexyl)benzamide]	1.54	0.44		
CC12CC3CC(C)(C1)CC(NC(=O)Nc1ccc(C(=O)N[C@H]4CC[C@H](C(=O)N(CCO)CCO)CC4)cc1F)(C3)C2 [ZT-112, N-((1r,4R)-4-(bis(2-hydroxyethyl)carbamoyl)cyclohexyl)-4-(3-((1r,3R,5S,7r)-3,5-dimethyladamantan-1-yl)ureido)-3-fluorobenzamide]	2.94	0.23		
CC12CC3CC(C)(C1)CC(NC(=O)Nc1ccc(C(=O)N[C@H]4CC[C@H](C(N)=O)CC4)cc1F)(C3)C2 [ZT-113, N-((1r,4R)-4-carbamoylcyclohexyl)-4-(3-((1r,3R,5S,7r)-3,5-dimethyladamantan-1-yl)ureido)-3-fluorobenzamide]	0.84	0.35		
C[C@]12CC3CC(NC(=O)Nc4ccc(C(=O)NC5CCC(C(=O)NC(CO)CO)CC5)cc4F)(C1)C[C@@](C)(C3)C2 (stereo partly drawn) [ZT-114, N-((1r,4R)-4-((1,3-dihydroxypropan-2-yl)carbamoyl)cyclohexyl)-4-(3-((1r,3R,5S,7r)-3,5-dimethyladamantan-1-yl)ureido)-3-fluorobenzamide]	0.91			0.55
CC12CC3CC(C)(C1)CC(NC(=O)Nc1ccc(C(=O)N[C@H]4CC[C@H](C(=O)NC(CO)(CO)CO)CC4)cc1F)(C3)C2 [ZT-115, N-((1r,4R)-4-((1,3-dihydroxy-2-(hydroxymethyl)propan-2-yl)carbamoyl)cyclohexyl)-4-(3-((1r,3R,5S,7r)-3,5-dimethyladamantan-1-yl)ureido)-3-fluorobenzamide]	0.35	0.12		
CC12CC3CC(C)(C1)CC(NC(=O)Nc1ccc(C(=O)N[C@H]4CC[C@H](C(=O)NCCN5CCN(C(=O)OC(C)(C)C)CC5)CC4)cc1F)(C3)C2 [ZT-116, tert-butyl 4-(2-((1R,4r)-4-(4-(3-((1r,3R,5S,7r)-3,5-dimethyladamantan-1-yl)ureido)-3-fluorobenzamido)cyclohexane-1-carboxamido)ethyl) piperazine-1-carboxylate]	183	2		
C[C@]12CC3CC(NC(=O)Nc4ccc(C(=O)NC5CCC(C(=O)N6CCN(CCO)CC6)CC5)cc4F)(C1)C[C@@](C)(C3)C2 (some centres unmarked) [ZT-117]	16			0.53
methyl 4-(2-(4-(4-(3-((1r,3R,5S,7r)-3,5-dimethyladamantan-1-yl) ureido)-3-fluorobenzyl)-1,4-diaza-1-yl)-2-oxoethyl) piperidine-1-carboxylate [GL-4]	1.1			0.41
